Measurements taken from US8779002B2, “Methods for treating a variety of diseases and conditions, and compounds useful therefor” (Salk Institute for Biological Studies, priority 2007, dated 2014).
Like-named read-outs stand apart in the source and are kept apart here.

Assays:
JNK-1 = JNK-1 (Homo sapiens, UniProt P45983); assay: Protein kinase panel: JNK-1; type: biochemical; settings: panel of 14 protein kinases
Text: (§1) A panel of 14 protein kinases was screened against Cmpd CNB-001. […] In HT22 cells and primary cortical neurons, Cmpd CNB-001 blocked p38 and JNK phosphorylation caused by glutamate by about 30%, and inhibited cell death. The phosphorylation of the other tested kinases was not altered.

JNK-2 = JNK-2 (Homo sapiens, UniProt P45984); assay: Protein kinase panel: JNK-2; type: biochemical; settings: panel of 14 protein kinases
JNK-2, sequence (P45984 whole entry, species assumed): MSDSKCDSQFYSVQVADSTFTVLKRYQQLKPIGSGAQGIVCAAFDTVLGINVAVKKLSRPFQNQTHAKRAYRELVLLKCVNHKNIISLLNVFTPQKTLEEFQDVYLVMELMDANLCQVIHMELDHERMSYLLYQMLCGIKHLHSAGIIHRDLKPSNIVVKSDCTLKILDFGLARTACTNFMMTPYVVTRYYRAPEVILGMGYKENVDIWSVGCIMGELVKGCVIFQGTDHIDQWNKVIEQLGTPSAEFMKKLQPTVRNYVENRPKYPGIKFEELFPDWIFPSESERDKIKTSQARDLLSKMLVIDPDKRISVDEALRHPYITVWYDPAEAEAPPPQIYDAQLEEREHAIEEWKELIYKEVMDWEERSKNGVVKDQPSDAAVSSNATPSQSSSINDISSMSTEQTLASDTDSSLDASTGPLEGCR
Text: as §1

Amyloid = Amyloid dissociation; set-up: key: + = positive result or enzyme activation
[1] = Plasma concentration and brain content after a single oral dose by gavage; type: in vivo, mouse; settings: for concentration at 0 hr / concentration at 1 hr / concentration at 2 hr: female, mouse, BALB/c mice
Procedure: The pharmacokinetic properties of a single oral dose of exemplary compounds according to the invention, i.e., Cmpd 11-001 and Cmpd J147, are studied in 10-week old female BALB/c mice. Cmpd 11-001 or J147 are emulsified in 2.5% carboxymethyl cellulose at a concentration of 20 mg/ml and administered by gavage at a dosage of 400 mg/kg body weight or 200 mg/kg body weight, respectively. The mice are then sacrificed at various intervals after administration (0, 1 hr, 2 hr, 4 hr, and 6 hr).
Plasma is obtained from blood (mixed with K3EDTA to prevent coagulation) by centrifugation at 4,300 g for 10 min, extracted twice with ethyl acetate/propanol (9:1, v/v). The extracts are centrifuged at 5,000 g for 10 min to form aqueous/organic layers. The organic layer containing Cmpd 11-001 is centrifuged at 20,000 g for 10 min to sediment particles. The extraction recovery from plasma is approximately 90%. Thirty μl thereof were analyzed by HPLC equipped with a C18 reversed phase column—Cmpd 11-001 is detected at 330 nm. The elution solvent system is 50% acetonitrile, 50% water and 1 g/L trifluoroacetic acid with a flow rate of 1 ml/min.
To study the distribution of compounds according to the invention in brain at various time intervals (0, 1 hr, 2 hr, 4 hr, and 6 hr) after gavage (400 mg/kg or 200 mg/kg as noted above), the mice are anesthetized with cloral hydrate and perfused through the heart with phosphate buffered saline (PBS) to remove blood in the brain. The mice are then decapitated, the brains removed, and quickly frozen and stored at −80° C. before further analysis. To measure the level of invention compound in the brain, weighed brain pieces are homogenized by sonication in 3 volumes of PBS. The homogenates are then extracted and measured by HPLC as described above.

[2] = system: double transgenic (mutated PS1 and APP) Alzheimer's mouse model; assay: Morris Water Maze in Alzheimer's mouse model; type: in vivo; settings: in the food for 4 months at 100 ppm
Procedure: FIG. 7 illustrates that […] improves spatial learning and memory in the Morris Water Maze. A circular water tank four feet in diameter, containing water at 26-27° C., is made opaque with white pigment, and a platform placed in the NW quadrant. Mice were randomly introduced to the tank facing the wall in one of the other quadrants for a trial of 50 s or until they found the platform. Upon reaching the platform, or at the end of the 50 s, the mice were placed on the platform, the mice were left on the platform for 15 s. There were four trials per mouse each day for seven consecutive days. The data are presented as the average time to reach the platform (escape latency) of the 4 daily trials for each group of mice. There are 3 groups of 5 mice each. One is wild type (circles), another is a double transgenic (mutated PS1 and APP) Alzheimer's mouse model (rectangle), and the third is the AD mouse plus J147 that has been in the food for 4 months at 100 ppm (diamond).

[3] = brain, 200 mg/kg single oral dose by gavage, read-out: Brain content
[4] = plasma, 200 mg/kg single oral dose by gavage, read-out: Plasma concentration

JNK-1, sequence (P45983 whole entry, species assumed): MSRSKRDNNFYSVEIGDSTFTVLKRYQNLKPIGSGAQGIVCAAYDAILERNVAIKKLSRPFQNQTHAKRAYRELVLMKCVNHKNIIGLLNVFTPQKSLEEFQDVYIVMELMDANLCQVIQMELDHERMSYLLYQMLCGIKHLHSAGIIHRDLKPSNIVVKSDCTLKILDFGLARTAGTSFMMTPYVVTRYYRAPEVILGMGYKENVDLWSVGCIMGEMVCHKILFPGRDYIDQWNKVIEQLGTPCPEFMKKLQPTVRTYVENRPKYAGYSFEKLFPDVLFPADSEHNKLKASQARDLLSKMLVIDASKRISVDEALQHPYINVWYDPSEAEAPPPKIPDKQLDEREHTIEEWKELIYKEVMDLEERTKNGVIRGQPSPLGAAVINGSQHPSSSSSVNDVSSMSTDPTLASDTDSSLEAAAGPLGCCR

Structure (SMILES) | Inhibition of kinase (JNK-1) | Inhibition of kinase (JNK-2) | Amyloid Dissociation (Amyloid) | Time at which maximum plasma concentration is reached after administration ([1]; 200 mg/kg single oral dose by gavage, mice) | concentration at 0 hr [1, 3] [ng/g] | concentration at 1 hr [1, 3] [ng/g] | concentration at 2 hr [1, 3] [ng/g] | concentration at 0 hr [1, 4] [ng/mL] | concentration at 1 hr [1, 4] [ng/mL] | concentration at 2 hr [1, 4] [ng/mL] | Retention in the brain ([1]; relative to 11-011, after oral gavage in mice) | Deficit in memory of AD mice relative to wild type (escape latency) [2]
COc1cc(/C=C/c2cc(/C=C/c3ccc(O)c(OC)c3)n(-c3ccccc3)n2)ccc1O [CNB-001] | None of the other enzymes that were assayed, including JNK-1 or JNK-2, were affected | None of the other enzymes that were assayed, including JNK-1 or JNK-2, were affected | + | – | – | – | – | – | – | – | – | –
COc1cccc(/C=N/N(C(=O)C(F)(F)F)c2ccc(C)cc2C)c1 [Compound J147] | – | – | – | about 1 hr | 0 | 3900 | 2800 | 0 | 5600 | 300 | improved ability to be retained in the brain | corrected
